Legend:
[1] = target: H. pylori urease (Helicobacter pylori, UniProt P14916+P69996); test: cell-based; assay type: cell-based; conditions: read-out: inhibition of urease activity in H. pylori cells
[2] = tested on: AGS cells with H. pylori infection; test: AGS cells with H. pylori infection, inhibitors administrated to the AGS cells (S20 Fig); assay type: cell-based, human; conditions: 10 μM administrated to AGS cells with H. pylori infection
Description: As expected, low viability of AGS with the supplement of cmpd4 and cmpd8 was observed due to the toxicity of small compounds to mammalian cells. […] (PNG) Click here for additional data file.

[3] = target: T1, UreG (Helicobacter pylori, UniProt Q09066); test: Nickel binding of UreG (UV absorption at 337 nm) in presence of compounds; set-up: species or system H. pylori; conditions: for percentage of Ni(II)-bound UreG: UreG 5 μM
T1 sequence (Q09066 whole entry): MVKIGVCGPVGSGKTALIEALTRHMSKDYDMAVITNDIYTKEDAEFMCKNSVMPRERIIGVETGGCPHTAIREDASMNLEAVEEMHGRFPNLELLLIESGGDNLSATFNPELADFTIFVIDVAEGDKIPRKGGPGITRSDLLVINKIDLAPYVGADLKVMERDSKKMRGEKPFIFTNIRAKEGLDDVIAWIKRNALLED
Protocol: We further investigated whether binding of cmpd4 or cmpd8 to the guanine nucleotide binding pocket perturbed the Ni(II) coordination to the protein. Considering that coordination of Ni(II) to UreG results in a (Cys)→Ni(II) LMCT band centered at about 337 nm, we monitored the UV absorption of UreG samples (5 μM) at 337 nm upon titration of nickel with or without the supplement of cmpd4 or cmpd8. As shown in S19 Fig, cmpd4 at a ratio of [cmpd4]/[UreG] of 5 and 10 reduced the percentages of Ni(II)-bound UreG to ca. 75% and 30%, respectively, and a similar phenomenon was also observed for cmpd8 (S19 Fig), indicative of the disruption of nickel binding property of UreG through targeting nucleotide binding site.
Supplementary file pbio.2003887.s021.png: S19 Fig Effect of cmpd4 and cmpd8 on nickel binding property of UreG. UreG (5 μM) in HEPES buffer (5 μM GTP, 1 mM MgSO4) was titrated with NiSO4 in the presence of cmpd4 or cmpd8 at various concentrations. Titration of nickel ion into UreG samples led to the increasing of absorption at 337 nm, the highest of which was set as 100% for the percentage of Ni-bound UreG. The supplement of cmpd4 and cmpd8 reduced the percentage of Ni-bound UreG. […] (PNG) Click here for additional data file.

[4] = tested on: AGS cells exposed to H. pylori; test: Cell infection model: AGS cells exposed to H. pylori pre-cultured with inhibitors; assay type: cell-based, human; conditions: for Normalized cell survival (%): H. pylori pre-cultured with 10 μM inhibitor 24 h, MOI 20, 24 h infection, Hp alone 28.8%
[5] = target: UreGΔNKXD (Helicobacter pylori, UniProt Q09066, D148A/K146A/N145A); test: Fluorescence-quenching titration of mutant UreGΔNKXD; assay type: binding, H. pylori
Chain of UreGΔNKXD (Q09066 whole entry N145A/K146A/D148A): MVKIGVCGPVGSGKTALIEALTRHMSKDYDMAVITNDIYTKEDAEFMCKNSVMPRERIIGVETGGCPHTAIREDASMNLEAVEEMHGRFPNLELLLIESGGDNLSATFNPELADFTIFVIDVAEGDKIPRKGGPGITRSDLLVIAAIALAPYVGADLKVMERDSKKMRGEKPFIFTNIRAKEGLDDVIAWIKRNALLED
Protocol: To further confirm the interface between UreG and small molecules generated from computational models, we then constructed an UreG mutant (UreGΔNKXD) by replacing selected residues (N145, K146, D148) with Ala to disrupt G4 motif, which abolished GTP binding of UreG (S17 Fig).
(§1) Using the relation between the emission intensity at 310 nm and molecule-UreG–bound species, as well as one site-binding model, the Kd values were calculated by a logistic regression model referring to a previous report. […] All fluorescence readings were corrected for the dilution effect.

[6] = target: T1, UreG; test: Fluorescence-quenching titration of UreG (Kd); assay type: binding, H. pylori
Protocol: as §1

[7] = target: T1, UreG; test: biochemical; assay type: biochemical, H. pylori
Protocol: A Malachite Green Phosphate Assay Kit (Abcam) was utilized to quantify the hydrolysis of GTP by UreG under various conditions. […] GTPase activity of UreG was triggered through the addition of 10 mM KHCO3, after which the reaction was incubated at 37°C for 30 min; then, the free phosphate from hydrolysis of GTP was determined. […] To eliminate the potential effect of small compounds on malachite green assay, the assay included a subtraction of the absorbance of reaction with the same amounts of compounds but without UreG enzyme for each reading.

Chain of H. pylori urease (P14916 whole entry, looked up): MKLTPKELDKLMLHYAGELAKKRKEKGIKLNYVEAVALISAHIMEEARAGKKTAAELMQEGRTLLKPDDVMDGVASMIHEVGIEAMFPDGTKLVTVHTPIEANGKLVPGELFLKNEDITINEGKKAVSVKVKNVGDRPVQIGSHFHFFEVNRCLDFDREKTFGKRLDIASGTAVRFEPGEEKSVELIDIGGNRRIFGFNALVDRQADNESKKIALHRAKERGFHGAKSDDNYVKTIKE
Chain of H. pylori urease (P69996 whole entry, looked up): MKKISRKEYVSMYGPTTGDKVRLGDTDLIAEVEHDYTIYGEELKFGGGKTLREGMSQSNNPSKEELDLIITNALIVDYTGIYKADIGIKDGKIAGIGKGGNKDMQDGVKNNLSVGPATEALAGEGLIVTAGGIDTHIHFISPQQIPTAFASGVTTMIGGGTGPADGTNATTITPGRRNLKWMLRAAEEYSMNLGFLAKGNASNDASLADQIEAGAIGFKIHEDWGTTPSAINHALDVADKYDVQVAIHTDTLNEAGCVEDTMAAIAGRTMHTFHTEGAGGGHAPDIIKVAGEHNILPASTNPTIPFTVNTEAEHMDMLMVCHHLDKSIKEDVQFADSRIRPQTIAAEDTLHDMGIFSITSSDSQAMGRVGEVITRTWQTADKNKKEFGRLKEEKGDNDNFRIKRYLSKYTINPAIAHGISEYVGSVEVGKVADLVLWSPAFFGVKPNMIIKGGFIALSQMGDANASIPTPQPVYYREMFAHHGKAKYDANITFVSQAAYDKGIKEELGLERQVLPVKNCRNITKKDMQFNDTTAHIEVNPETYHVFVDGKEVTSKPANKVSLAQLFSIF

With Cc1cccc(N2CCN(C(=O)c3cc(S(=O)(=O)N(C)C)ccc3N3CCCC3)CC2)c1C [cmpd4] the inhibition at 20 µM [1] was roughly 60%, the “Ammonia in medium” value [2] was 0.3373 mM and the “Normalized cell survival (%)” value [2] was “low viability”. The “Normalized cell survival (%)” value ([2]; listed as cmp4) was 22.5225%, the “percentage of Ni(II)-bound UreG” value ([3]; [cmpd4]/[UreG] of 5) was “ca. 75%” and the “percentage of Ni(II)-bound UreG” value ([3]; [cmpd4]/[UreG] of 10) was roughly 30%. For the same compound, the “absorption at 337 nm” value ([3]; [compound]/[UreG] 5, Ni 0 μM) was 5.14E-05, the “absorption at 337 nm” value ([3]; [compound]/[UreG] 5, Ni 1 μM) was 0.00539 and the “absorption at 337 nm” value ([3]; [compound]/[UreG] 5, Ni 2 μM) was 0.00942. The “absorption at 337 nm” value ([3]; [compound]/[UreG] 5, Ni 3 μM) was 0.01515, the “absorption at 337 nm” value ([3]; [compound]/[UreG] 5, Ni 4 μM) was 0.01614 and the “absorption at 337 nm” value ([3]; [compound]/[UreG] 5, Ni 5 μM) was 0.01885. The “absorption at 337 nm” value ([3]; [compound]/[UreG] 5, Ni 6 μM) was 0.02176, the “absorption at 337 nm” value ([3]; [compound]/[UreG] 5, Ni 7 μM) was 0.02335 and the “absorption at 337 nm” value ([3]; [compound]/[UreG] 5, Ni 8 μM) was 0.02298. The “absorption at 337 nm” value ([3]; [compound]/[UreG] 10, Ni 0 μM) was -8.22E-04, the “absorption at 337 nm” value ([3]; [compound]/[UreG] 10, Ni 1 μM) was 0.00376 and the “absorption at 337 nm” value ([3]; [compound]/[UreG] 10, Ni 2 μM) was 0.00766. The “absorption at 337 nm” value ([3]; [compound]/[UreG] 10, Ni 3 μM) was 0.00856, the “absorption at 337 nm” value ([3]; [compound]/[UreG] 10, Ni 4 μM) was 0.00995 and the “absorption at 337 nm” value ([3]; [compound]/[UreG] 10, Ni 5 μM) was 0.01042. The “absorption at 337 nm” value ([3]; [compound]/[UreG] 10, Ni 6 μM) was 0.01062, the “absorption at 337 nm” value ([3]; [compound]/[UreG] 10, Ni 7 μM) was 0.01073 and the “absorption at 337 nm” value ([3]; [compound]/[UreG] 10, Ni 8 μM) was 0.00864. The “Normalized cell survival (%)” value [4] was 70.3% ± 11.3%, the “Normalized cell survival (%)” value ([4]; listed as cmp4) was 70.2703% and the “Ammonia in medium (mM)” value ([4]; H. pylori pre-cultured with 10 μM inhibitor, urea 10 mM, 24 h, Hp alone ca. 2.5 mM) was “around 1.1 mM”. For the same compound, the “Ammonia in medium” value ([4]; H. pylori pre-cultured with 10 μM inhibitor, urea 10 mM, 24 h, Hp alone ca. 2.5 mM, listed as cmp4) was 1.1872 mM, the Kd [5] was 34.7 µM and the “fluorescence intensity (a.u.)” value ([5]; log(ligand[μM]) 0) was 2206 a.u. For the same compound, the “fluorescence intensity (a.u.)” value ([5]; log(ligand[μM]) 0.30103) was 2092 a.u, the “fluorescence intensity (a.u.)” value ([5]; log(ligand[μM]) 0.60206) was 1907 a.u and the “fluorescence intensity (a.u.)” value ([5]; log(ligand[μM]) 0.90309) was 1710.67 a.u. The “fluorescence intensity (a.u.)” value ([5]; log(ligand[μM]) 1.20412) was 1454.33 a.u, the “fluorescence intensity (a.u.)” value ([5]; log(ligand[μM]) 1.50515) was 989.433 a.u and the “fluorescence intensity (a.u.)” value ([5]; log(ligand[μM]) 1.80618) was 540.3 a.u. The “fluorescence intensity (a.u.)” value ([5]; log(ligand[μM]) 2.10721) was 237.1 a.u, the “fluorescence intensity (a.u.)” value ([5]; log(ligand[μM]) -0.30103) was 2278 a.u and the “fluorescence intensity (a.u.)” value ([5]; log(ligand[μM]) -1.30103) was 2063.67 a.u. The Kd [6] was 10.6 ± 2.3 µM, the “fluorescence intensity (a.u.)” value ([6]; log(ligand[μM]) 0) was 2682 a.u and the “fluorescence intensity (a.u.)” value ([6]; log(ligand[μM]) 0.30103) was 2455.33 a.u. For the same compound, the “fluorescence intensity (a.u.)” value ([6]; log(ligand[μM]) 0.60206) was 2056.33 a.u, the “fluorescence intensity (a.u.)” value ([6]; log(ligand[μM]) 0.90309) was 1714.67 a.u and the “fluorescence intensity (a.u.)” value ([6]; log(ligand[μM]) 1.20412) was 1176.67 a.u. For the same compound, the “fluorescence intensity (a.u.)” value ([6]; log(ligand[μM]) 1.50515) was 615.233 a.u, the “fluorescence intensity (a.u.)” value ([6]; log(ligand[μM]) 1.80618) was 297.433 a.u and the “fluorescence intensity (a.u.)” value ([6]; log(ligand[μM]) -0.30103) was 2867.67 a.u. For the same compound, the “fluorescence intensity (a.u.)” value ([6]; log(ligand[μM]) -0.60206) was 2962.67 a.u, the “fluorescence intensity (a.u.)” value ([6]; log(ligand[μM]) -1.30103) was 3018 a.u and the IC50 [7] was 16.8 ± 6.5 µM. The “Normalized GTPase activity(%)” value ([7]; log[μM] 0) was 97.2%, the “Normalized GTPase activity(%)” value ([7]; log[μM] 0.60206) was 90.0% and the “Normalized GTPase activity(%)” value ([7]; log[μM] 0.90309) was 69.0%. The “Normalized GTPase activity(%)” value ([7]; log[μM] 1.20412) was 56.9%, the “Normalized GTPase activity(%)” value ([7]; log[μM] 1.50515) was 41.1% and the “Normalized GTPase activity(%)” value ([7]; log[μM] 1.79588) was 28.1%. For the same compound, the “Normalized GTPase activity(%)” value ([7]; log[μM] 2.09691) was 11.6%, the “Normalized GTPase activity(%)” value ([7]; log[μM] 2.39794) was 16.3% and the “Normalized GTPase activity(%)” value ([7]; purified Ni-UreG (5 µM), 20 µM small compound) was 43.9%. For the same compound, the inhibition at 20 µM ([7]; read-out: inhibition of the GTPase activity of UreG) was 37 to 72%.

Source: publication PMC5779714, “Metallochaperone UreG serves as a new target for design of urease inhibitor: A novel strategy for development of antimicrobials” (PLoS Biology, 2018)
